Patent US6835714B1, “Heterocyclic compounds, intermediates thereof and elastase inhibitors” (Dainippon Pharmaceutical Co., Ltd., priority 1999, dated 2004)
Values after ≈ are worked out from the molar mass of the structure shown. Read-outs that look alike come from different tables or passages of the source.

Tests used:
[1] = Solubility in aqueous solvent; type: physicochemical; conditions: 25° C.
Method: Experiment 4: Solubility in Aqueous Solvent The solubility in an aqueous solvent of the present compound was measured, and the results as shown in Table 4 were obtained. The pH value in Table 4 is a pH value of a solution of the present compound in distilled water.

[2] = tested on: pulmonary hemorrhage induced by human neutrophilic elastase; experiment: Inhibitory activity on pulmonary hemorrhage induced by human neutrophilic elastase in hamsters; conditions: hamster
Method: When human neutrophilic elastase is administered intratracheally to a hamster, the hemorrhage is induced in the lung. Hemoglobin is detected in the broncho-alveolar lavage fluid, which is obtained by washing the lung via bronchi at a fixed period after the elastase administration. In order to examine how much this hemorrhage can be inhibited by the present compound, this experiment was carried out by measuring the concentration of this hemoglobin.
Hamsters (male Syrian strain, 8-10 weeks old) were grouped into the following three groups (5 animals per group), and the following treatment was carried out on each group.
(A) Vehicle-Treated Control Group (Non-Treatment Group):
The result of the measurement was counted as A.
(B) Human Neutrophilic Elastase-Treated Group (Without the Present Compound):
Human neutrophilc elastase (25 units, manufactured by Elastin Products, Inc.) was dissolved in physiological saline solution (0.2 ml), and the solution thus obtained was administered to the hamsters at the bronchial tube to induce the pulmonary hemorrhage. One hour after the administration of elastase, the concentration of hemoglobin in the broncho-alveolar lavage fluid was measured in the same manner as in Group (A). The result of the measurement was counted as B.
(C) Human Neutrophilic Elastase-Treated Group (with the Present Compound):
A fixed amount of the present compound was administered to the hamsters in the form of a phosphate-buffered saline solution (pH 7.4) in the manner as described below. Then, human neutrophilic elastase was administered to the hamsters in the same manner as the above. One hour after the administration of elastase, the concentration of hemoglobin in the washing of the broncho-alveolar lavage was measured in the same manner as in Group (A). The result of the measurement was counted as C.
Administration Method of the Present Compound:
The administration of the present compound to the hamsters was carried out by two kinds of methods. One of them is a method of intravenous bolus-administration of the solution containing the present compound 5 minutes prior to the elastase administration. Another method is a method of intravenous infusion of the solution containing the present compound for a period of 70 minutes beginning at 10 minutes prior to the elastase administration.

[3] = tested on: Std:ddy mice; type: in vivo; conditions: intravenous administration 300 mg/kg, 24 hours after administration
Text: Experiment 3: Acute Toxicity Test in Mice
Twenty-four hours after the administration, the animals were observed if dead or alive.
*: Number of survived animals/number of tested animals

[4] = target: T1, Human neutrophilic elastase (Homo sapiens, UniProt P08246); experiment: Human neutrophilic elastase inhibitory activity in vitro (fluorogenic substrate); type: biochemical; conditions: 37° C., pH 7.5
T1 construct: purchased Sigma
T1 sequence (P08246 30-267): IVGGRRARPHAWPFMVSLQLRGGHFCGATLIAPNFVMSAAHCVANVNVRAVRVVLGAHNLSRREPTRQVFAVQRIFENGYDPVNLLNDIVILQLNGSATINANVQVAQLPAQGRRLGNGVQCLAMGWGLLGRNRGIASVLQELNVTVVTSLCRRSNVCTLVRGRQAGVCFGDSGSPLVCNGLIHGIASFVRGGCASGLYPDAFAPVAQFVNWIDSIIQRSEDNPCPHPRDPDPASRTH
Method: Experiment 1: Human Neutrophilic Elastase Inhibitory Activity
In the present experiment, the inhibitory activity of the present invention against human neutrophilic elastase was studied in vitro.
The resulting solution (210 μl) was mixed with a 10^−8-10^−5 M solution of the present compound (40 μl), and the mixture was pre-incubated at 37° C. for 6 minutes. To this solution, 4 mM succinyl-alanyl-prolyl-alanine 4-methyl-coumaryl-7-amide (substrate solution, Peptide Institute Inc.) (50 μl) and distilled water (100 μl) were added, and the mixture was further reacted at 37° C. for 20 minutes. The concentration of the 7-amino-4-methylcoumarine thus obtained was measured fluorimetrically by monitoring at an excitation wave length of 380 nm and a fluorescent wave length of 460 nm.
The above “Bri j-35” means polyoxyethylene (23) lauryl ether, and the “HEPES” means N-(2-hydroxyethyl)piperazine-N′-(2-ethane-sulfonic acid).
In the following equation, A means the intensity of fluorescence when a present compound is added, and B means the intensity of fluorescence when a present compound is not added.
Inhibitory Rate (%)=(1−A/B)×100

[5] = distilled water, pH of the solution given beside each value, read-out: Solubility, Water
[6] = aqueous buffer, 0.1 M phosphate buffer pH 7.4, read-out: Solubility, 0.1 M Phosphate buffer (pH 7.4)
[7] = intravenous bolus administration 3 mg/kg, 5 minutes prior to elastase
[8] = intravenous bolus administration 10 mg/kg, 5 minutes prior to elastase
[9] = intravenous infusion 1 mg/kg/hr for 70 minutes
[10] = intravenous infusion 3 mg/kg/hr for 70 minutes
[11] = intravenous infusion 10 mg/kg/hr for 70 minutes

| SMILES | solubility [1, 5] [mg/mL] | solubility [1, 6] [mg/mL] | Hemorrhage inhibitory rate ([2]; intravenous bolus administration 100 mg/kg (control dose row)) [%] | Hemorrhage inhibitory rate ([2]; intravenous infusion 10 mg/kg/hr (control dose row)) [%] | Hemorrhage inhibitory rate ([2]; intravenous infusion 100 mg/kg/hr (control dose row)) [%] | Livability (number of survived animals/number of tested animals) [3] | IC50 [4] [nM] | Hemorrhage inhibitory rate [2, 7] [%] | Hemorrhage inhibitory rate [2, 8] [%] | Hemorrhage inhibitory rate [2, 9] [%] | Hemorrhage inhibitory rate [2, 10] [%] | Hemorrhage inhibitory rate [2, 11] [%] |
| --- | --- | --- | --- | --- | --- | --- | --- | --- | --- | --- | --- | --- |
| CC(C)(C)C(=O)Oc1ccc(S(=O)(=O)Nc2ccccc2C(=O)NCC(=O)O)cc1 [Control (a), reference compound] | 0.012 (≈ 0.0276 mM) | ~20 (≈ 46 mM) | 74 | 18 | 60 |  |  |  |  |  |  |  |
| CC(C)[C@H](NC(=O)CN1CCN(CC(=O)O)C1=O)C(=O)N1CCC[C@H]1C(=O)N[C@H](C(=O)C(F)(F)F)C(C)C [I-b-1, 2-(3-carboxymethyl-2-oxo-1-imidazolidinyl)acetyl-L-valyl-N-[(1S)-3,3,3-trifluoro-1-isopropyl-2-oxopropyl]-L-prolinamide] | > 1000 | > 1000 |  |  |  | 6/6 |  |  |  |  |  |  |
| CC(C)[C@H](NC(=O)[C@@H]1CCCN1C(=O)[C@@H](NC(=O)Cn1ccc(=O)n(CC(=O)O)c1=O)C(C)C)C(=O)c1nc2ccccc2o1 [I-b-2, 2-(3-carboxymethyl-2,4-dioxo-1-pyrimidinyl)acetyl-L-valyl-N-[(1S)-2-(2-benzoxazolyl)-1-isopropyl-2-oxoethyl]-L-prolinamide] | 5 (≈ 8 mM) | > 100 |  |  |  | 6/6 |  |  |  |  |  |  |
| CC(C)[C@H](NC(=O)[C@@H]1CCCN1C(=O)[C@@H](NC(=O)Cn1ccc(=O)n(CC(=O)O)c1=O)C(C)C)C(=O)C(=O)NCc1ccccc1 [I-b-3, 2-(3-carboxymethyl-2,4-dioxo-1-pyrimidinyl)acetyl-L-valyl-N-[(1S)-3-benzylamino-1-isopropyl-2,3-dioxopropyl]-L-prolinamide] | 8.7 (≈ 13.6 mM) | > 100 |  |  |  | 6/6 |  |  |  |  |  |  |
| CC(C)[C@H](NC(=O)CN1C(=O)CN(CC(=O)O)C1=O)C(=O)N1CCC[C@H]1C(=O)N[C@H](C(=O)C(F)(F)F)C(C)C [I-b-7, 2-(3-carboxymethyl-2,5-dioxo-1-imidazolidinyl)acetyl-L-valyl-N-[(1S)-3,3,3-trifluoro-1-isopropyl-2-oxopropyl]-L-prolinamide] |  |  |  |  |  |  | 82 | 50 | 64 | 51 | 53 | 72 |
| CC(C)[C@H](NC(=O)[C@@H]1CCCN1C(=O)[C@@H](NC(=O)CC(=O)N1CCN(CC(=O)O)C(=O)C1)C(C)C)C(=O)c1nc2ccccc2o1 [I-b-10] |  |  |  |  |  |  | 45 | 32 | 76 | 52 | 69 | 92 |
